Results taken from ChEMBL document CHEMBL4627319, “Novel class of benzimidazole-thiazole hybrids: The privileged scaffolds of potent anti-inflammatory activity with dual inhibition of cyclooxygenase and 15-lipoxygenase enzymes” (Bioorg Med Chem, 2020).
pIC50: −log10 of the molar value.

Key:
[1] = molecular target: Prostaglandin G/H synthase 1 (Homo sapiens, UniProt P23219); experiment: Inhibition of human COX1 expressed in CHO cells assessed as reduction in arachidonic acid-stimulated PGE2 production; type: cell-based
Sequence of Prostaglandin G/H synthase 1 (Homo sapiens, UniProt P23219) (P23219 whole entry): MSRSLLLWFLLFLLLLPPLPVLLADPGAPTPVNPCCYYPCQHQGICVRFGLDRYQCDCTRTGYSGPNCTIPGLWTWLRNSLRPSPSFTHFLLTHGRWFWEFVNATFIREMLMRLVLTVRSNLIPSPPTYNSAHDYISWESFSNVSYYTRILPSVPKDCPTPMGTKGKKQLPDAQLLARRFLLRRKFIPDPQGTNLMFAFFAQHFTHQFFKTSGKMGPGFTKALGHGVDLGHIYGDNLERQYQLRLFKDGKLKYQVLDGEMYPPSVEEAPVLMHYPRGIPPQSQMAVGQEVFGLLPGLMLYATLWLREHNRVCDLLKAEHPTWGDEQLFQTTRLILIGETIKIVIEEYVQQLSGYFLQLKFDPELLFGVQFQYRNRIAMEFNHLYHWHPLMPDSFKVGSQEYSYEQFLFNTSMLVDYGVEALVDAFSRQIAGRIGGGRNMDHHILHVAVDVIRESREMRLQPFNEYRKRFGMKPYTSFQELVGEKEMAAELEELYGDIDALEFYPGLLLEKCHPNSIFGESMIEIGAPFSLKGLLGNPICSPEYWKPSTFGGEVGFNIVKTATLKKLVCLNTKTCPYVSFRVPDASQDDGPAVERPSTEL

[2] = molecular target: T1, Prostaglandin G/H synthase 1 (Ovis aries, UniProt P05979); experiment: Inhibition of ovine COX1 using arachidonic acid as substrate preincubated for 10 mins followed by substrate addition and measured after 2 mins by EIA
T1 sequence (P05979 whole entry): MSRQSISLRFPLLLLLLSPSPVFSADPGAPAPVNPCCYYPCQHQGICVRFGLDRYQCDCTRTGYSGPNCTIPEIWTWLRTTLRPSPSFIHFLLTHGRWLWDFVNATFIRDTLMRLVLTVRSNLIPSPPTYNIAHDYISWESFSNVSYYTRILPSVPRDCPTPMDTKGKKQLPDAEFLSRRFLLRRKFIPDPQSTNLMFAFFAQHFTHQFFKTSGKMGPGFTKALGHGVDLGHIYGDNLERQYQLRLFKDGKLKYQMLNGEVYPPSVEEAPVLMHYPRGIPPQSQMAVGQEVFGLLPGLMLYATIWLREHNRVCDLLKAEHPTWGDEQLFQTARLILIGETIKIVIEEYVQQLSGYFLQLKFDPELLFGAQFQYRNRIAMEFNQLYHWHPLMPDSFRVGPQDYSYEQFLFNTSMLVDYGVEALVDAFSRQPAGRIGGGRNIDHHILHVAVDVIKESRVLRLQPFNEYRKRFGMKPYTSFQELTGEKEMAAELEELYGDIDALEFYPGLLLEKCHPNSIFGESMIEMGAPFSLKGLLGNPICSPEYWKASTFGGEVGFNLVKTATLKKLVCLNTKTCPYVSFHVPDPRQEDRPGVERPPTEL

[3] = Inhibition of soybean 15-LOX using arachidonic acid or linoleic acid as substrate preincubated for 5 mins followed by substrate addition and measured after 10 mins by colorimetric assay; design: species or system Glycine max
[4] = molecular target: T2, Prostaglandin G/H synthase 2 (Homo sapiens, UniProt P35354); experiment: Inhibition of COX2 (unknown origin)
T2 sequence (P35354 whole entry): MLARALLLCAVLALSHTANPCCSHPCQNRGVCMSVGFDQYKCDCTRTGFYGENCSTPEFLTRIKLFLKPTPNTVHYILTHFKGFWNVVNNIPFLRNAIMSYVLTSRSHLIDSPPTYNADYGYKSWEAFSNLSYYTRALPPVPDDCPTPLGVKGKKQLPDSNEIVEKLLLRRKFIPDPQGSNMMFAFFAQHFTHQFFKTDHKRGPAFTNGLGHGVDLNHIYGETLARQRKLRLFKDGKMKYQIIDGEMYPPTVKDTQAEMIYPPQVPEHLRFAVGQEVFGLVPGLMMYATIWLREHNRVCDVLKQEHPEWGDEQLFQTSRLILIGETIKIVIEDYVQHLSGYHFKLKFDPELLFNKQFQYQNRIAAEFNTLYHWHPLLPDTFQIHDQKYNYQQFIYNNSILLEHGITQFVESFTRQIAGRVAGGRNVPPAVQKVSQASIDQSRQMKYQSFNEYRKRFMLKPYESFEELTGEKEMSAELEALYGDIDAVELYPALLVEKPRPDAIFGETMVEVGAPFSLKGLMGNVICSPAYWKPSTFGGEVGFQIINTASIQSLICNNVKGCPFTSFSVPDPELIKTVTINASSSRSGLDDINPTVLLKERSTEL

Rattus norvegicus [5] = experiment: Anti-inflammatory activity in albino rat assessed as inhibition of carrageenan-induced paw edema at 28 uM/kg, ip measured at 0.5 hrs by calliper method relative to control; type: functional
Rattus norvegicus [6] = experiment: Antiinflammatory activity in albino rat assessed as reduction in carrageenan-induced paw edema by measuring thickness of right paw at 28 uM/kg, ip measured at 3 hrs by calliper method (reference value: 7.83 +/- 0.33 cm); type: functional
Rattus norvegicus [7] = experiment: Antiinflammatory activity in albino rat assessed as reduction in carrageenan-induced paw edema by measuring thickness of right paw at 28 uM/kg, ip measured at 0.5 hrs by calliper method (reference value: 7.33 +/- 0.17 cm); type: functional
[8] = Ulcerogenic activity in albino rat assessed as congestion of blood vessel at 10 to 50 mg/kg, po measured after 6 hrs by H and E staining based light microscopic assay; type: toxicity, organism-based; conditions: in vivo
Rattus norvegicus [9] = experiment: Antiinflammatory activity in albino rat assessed as reduction in carrageenan-induced paw edema by measuring thickness of right paw at 28 uM/kg, ip measured at 4 hrs by calliper method (reference value: 8.50 +/- 0.58 cm); type: functional
Rattus norvegicus [10] = experiment: Antiinflammatory activity in albino rat assessed as reduction in carrageenan-induced paw edema by measuring thickness of right paw at 28 uM/kg, ip measured at 2 hrs by calliper method (reference value: 7.67 +/- 0.17 cm); type: functional
Rattus norvegicus [11] = experiment: Anti-inflammatory activity in albino rat assessed as inhibition of carrageenan-induced paw edema at 28 uM/kg, ip measured at 3 hrs by calliper method relative to indomethacin; type: functional; design: scale not given: the % may be the effect or the level left
Rattus norvegicus [12] = experiment: Anti-inflammatory activity in albino rat assessed as inhibition of carrageenan-induced paw edema at 28 uM/kg, ip measured at 4 hrs by calliper method relative to control; type: functional
Rattus norvegicus [13] = experiment: Anti-inflammatory activity in albino rat assessed as inhibition of carrageenan-induced paw edema at 28 uM/kg, ip measured at 3 hrs by calliper method relative to control; type: functional
Rattus norvegicus [14] = experiment: Anti-inflammatory activity in albino rat assessed as inhibition of carrageenan-induced paw edema at 28 uM/kg, ip measured at 2 hrs by calliper method relative to control; type: functional
[15] = Ulcerogenic activity in albino rat assessed as effect on gastric mucosa membrane at 10 to 50 mg/kg, po measured after 6 hrs by H and E staining based light microscopic assay; type: toxicity, organism-based; conditions: in vivo
Rattus norvegicus [16] = experiment: Antiinflammatory activity in albino rat assessed as reduction in carrageenan-induced paw edema by measuring thickness of right paw at 28 uM/kg, ip measured immediately by calliper method (reference value: 6.83 +/-0.17 cm); type: functional
Rattus norvegicus [17] = experiment: Anti-inflammatory activity in albino rat assessed as inhibition of carrageenan-induced paw edema at 28 uM/kg, ip measured at 1 hr by calliper method relative to control; type: functional
Rattus norvegicus [18] = experiment: Antiinflammatory activity in albino rat assessed as reduction in carrageenan-induced paw edema by measuring thickness of right paw at 28 uM/kg, ip measured at 1 hr by calliper method (reference value: 7.33 +/- 0.17 cm); type: functional
Rattus norvegicus [19] = experiment: Anti-inflammatory activity in albino rat assessed as inhibition of carrageenan-induced paw edema at 28 uM/kg, ip measured at 4 hrs by calliper method relative to indomethacin; type: functional; design: scale not given: the % may be the effect or the level left
[20] = Ulcerogenic activity in albino rat assessed as damage of gastric mucosa surface epithelium at 10 to 50 mg/kg, po measured after 6 hrs by H and E staining based light microscopic assay; type: toxicity, organism-based; conditions: in vivo
[21] = Ulcerogenic activity in albino rat assessed as damage of scarred mucosal epithelium at 10 to 50 mg/kg, po measured after 6 hrs by H and E staining based light microscopic assay; type: toxicity, organism-based; conditions: in vivo
[22] = Ulcerogenic activity in albino rat assessed as ulcer formation with distorted gastric gland at 10 to 50 mg/kg, po measured after 6 hrs by H and E staining based light microscopic assay; type: toxicity, organism-based; conditions: in vivo

## CS(=O)(=O)c1ccc(-c2c(-c3ccccc3)nc3sccn23)cc1
[1]
  pIC50: < 4.30

## CSc1nc2ccccc2n1-c1csc(NC(=O)c2ccccc2)n1
[2]
  pIC50: 5.27
[3]
  pIC50: 5.39

## CSc1nc2ccccc2n1-c1csc(N)n1
[2]
  pIC50: 5.38
[3]
  pIC50: 5.18

## CSc1nc2ccccc2n1-c1csc2nc(-c3ccccc3)cn12
[2]
  pIC50: 5.22
[3]
  pIC50: 5.26

## O=[N+]([O-])c1ccc(-c2nnc(Cn3c(CN4CCCCC4)nc4ccccc43)o2)cc1
[4]
  pIC50: 6.09 to 7.22

## Clc1ccc(-c2nnc(Cn3c(CN4CCCCC4)nc4ccccc43)o2)cc1
[4]
  pIC50: 6.09 to 7.22

## CCn1c(-n2cc(/C=N/N=C3/NC(=O)CS3)c(-c3ccc(OC)cc3)n2)nc2c1c(=O)n(C)c(=O)n2C
[3]
  pIC50: 5.70

## CCn1c(-n2cc(/C=N/N=c3\[nH]c(-c4ccc(Br)cc4)cs3)c(-c3ccc(OC)cc3)n2)nc2c1c(=O)n(C)c(=O)n2C
[3]
  pIC50: 5.75

## CSc1nc2ccccc2n1-c1csc(=N)n1CC(=O)c1ccccc1
[2]
  pIC50: 5.01
[3]
  pIC50: 5.40

## CSc1nc2ccccc2n1-c1csc(NC(=O)c2ccc(C)cc2)n1
[2]
  pIC50: 5.21
[3]
  pIC50: 5.30

## CSc1nc2ccccc2n1-c1csc(NC/C(C)=N/N=c2\scc(-c3ccccc3)n2-c2ccccc2)n1
[2]
  pIC50: 4.91
[3]
  pIC50: 5.73

## O=C1N/C(=N\c2nnc(-c3ccc(O)cc3)s2)S/C1=C\c1ccc(Cl)c(Cl)c1
[3]
  pIC50: 4.93

## CSc1nc2ccccc2n1-c1csc(NCC(=O)c2ccc(Cl)cc2)n1
[2]
  pIC50: 5.09
[3]
  pIC50: 5.38

## Fc1ccccc1-c1nnc(Cn2c(CN3CCCCC3)nc3ccccc32)o1
[4]
  pIC50: 6.09 to 7.22

## CCn1c(-n2cc(/C=N/N=c3\scc(-c4ccc(Br)cc4)n3-c3ccccc3)c(-c3ccc(OC)cc3)n2)nc2c1c(=O)n(C)c(=O)n2C
[3]
  pIC50: 5.74

## CSc1nc2ccccc2n1-c1csc(NC/C(C)=N/N=C2\SCC(=O)N2c2ccccc2)n1
Rattus norvegicus [5]
  inhibition (INH): 38.4%
Rattus norvegicus [6]
  Activity: 3.83 cm
Rattus norvegicus [7]
  Activity: 5.67 cm
[2]
  pIC50: 4.97
[8]
  Activity: Toxic
Rattus norvegicus [9]
  Activity: 4.5 cm
Rattus norvegicus [10]
  Activity: 4.17 cm
Rattus norvegicus [11]
  Activity: 119.4%
Rattus norvegicus [12]
  inhibition (INH): 80.57%
Rattus norvegicus [13]
  inhibition (INH): 82.83%
Rattus norvegicus [14]
  inhibition (INH): 74.83%
[3]
  pIC50: 5.71
[15]
  Activity: Non-Toxic
Rattus norvegicus [16]
  Activity: 7 cm
Rattus norvegicus [17]
  inhibition (INH): 61.6%
Rattus norvegicus [18]
  Activity: 4.67 cm
Rattus norvegicus [19]
  Activity: 102.21%

## CSc1nc2ccccc2n1-c1csc(NC/C(C)=N/N=c2\scc(-c3ccc(C)cc3)n2-c2ccccc2)n1
[2]
  pIC50: 4.88
[3]
  pIC50: 5.67

## CSc1nc2ccccc2n1-c1csc(NCC(C)=O)n1
[2]
  pIC50: 4.93
[3]
  pIC50: 5.53

## CSc1nc2ccccc2n1-c1csc(NC/C(C)=N/N=c2\scc(-c3ccc(Cl)cc3)n2-c2ccccc2)n1
Rattus norvegicus [5]
  inhibition (INH): 22.67%
Rattus norvegicus [6]
  Activity: 4.67 cm
Rattus norvegicus [7]
  Activity: 6.33 cm
[2]
  pIC50: 4.88
Rattus norvegicus [9]
  Activity: 5.67 cm
Rattus norvegicus [10]
  Activity: 5 cm
Rattus norvegicus [11]
  Activity: 109.08%
Rattus norvegicus [13]
  inhibition (INH): 75.67%
Rattus norvegicus [14]
  inhibition (INH): 56.67%
[3]
  pIC50: 5.78
Rattus norvegicus [16]
  Activity: 7.17 cm
Rattus norvegicus [17]
  inhibition (INH): 46.27%
Rattus norvegicus [18]
  Activity: 5.33 cm
Rattus norvegicus [19]
  Activity: 93.2%

## Fc1ccc(-c2nnc(Cn3c(CN4CCCCC4)nc4ccccc43)o2)cc1
[4]
  pIC50: 6.09 to 7.22

## CSc1nc2ccccc2n1-c1csc(NC/C(C)=N/NC(=S)Nc2ccccc2)n1
Rattus norvegicus [5]
  inhibition (INH): 38.43%
Rattus norvegicus [6]
  Activity: 4.83 cm
Rattus norvegicus [7]
  Activity: 5.67 cm
[2]
  pIC50: 4.97
Rattus norvegicus [9]
  Activity: 5.5 cm
Rattus norvegicus [10]
  Activity: 4.67 cm
Rattus norvegicus [11]
  Activity: 102.31%
Rattus norvegicus [12]
  inhibition (INH): 68.8%
Rattus norvegicus [13]
  inhibition (INH): 70.97%
Rattus norvegicus [14]
  inhibition (INH): 64.1%
[3]
  pIC50: 5.53
Rattus norvegicus [16]
  Activity: 7.33 cm
Rattus norvegicus [17]
  inhibition (INH): 53.73%
Rattus norvegicus [18]
  Activity: 5 cm
Rattus norvegicus [19]
  Activity: 87.28%

## CSc1nc2ccccc2n1-c1csc(NC(=O)c2ccc(Cl)cc2)n1
[2]
  pIC50: 5.15
[3]
  pIC50: 5.29

## COc1ccc2c(c1)c(CC(=O)O)c(C)n2C(=O)c1ccc(Cl)cc1 [INDOMETHACIN]
Rattus norvegicus [5]
  inhibition (INH): 34.7%
[20]
  Activity: Toxic
Rattus norvegicus [6]
  Activity: 4.5 cm
Rattus norvegicus [7]
  Activity: 5.83 cm
[8]
  Activity: Toxic
[21]
  Activity: Toxic
Rattus norvegicus [9]
  Activity: 4.17 cm
Rattus norvegicus [10]
  Activity: 4.67 cm
[22]
  Activity: Toxic
Rattus norvegicus [12]
  inhibition (INH): 78.83%
Rattus norvegicus [13]
  inhibition (INH): 69.37%
Rattus norvegicus [14]
  inhibition (INH): 63.7%
Rattus norvegicus [16]
  Activity: 7.17 cm
Rattus norvegicus [17]
  inhibition (INH): 54.17%
Rattus norvegicus [18]
  Activity: 5 cm

## O=c1c(O)c(-c2ccc(O)c(O)c2)oc2cc(O)cc(O)c12 [QUERCETIN]
[3]
  pIC50: 5.48
